Assay [1] concerns HT-29 cells. As to the kind of experiment: cells. As to conditions: Homo sapiens, HT-29, 48 h, read-out: HT-29 IV (intermediate value). The procedure: (§1) Cell viability was evaluated by MTT assay.
(§2) It is necessary for this IV to have a method of comparison for the combination of experiments.
(§3) Human colorectal cancer HT-29 and prostate cancer PC-3 cell lines were obtained from the American Type Culture Collection (ATCC; Manassas, VA, USA) and maintained according to ATCC’s recommendations at 37 °C and 5% CO2 in appropriate medium supplemented with 10% foetal bovine serum, 100 U/mL penicillin G and 100 µg/mL streptomycin. Cells were maintained in the logarithmic growth phase at all times. The media were changed every 2 days and trypsinised with 0.25% trypsin–EDTA. A total of 100 µL of HT-29 cells (7500 cells/well) or PC-3 cells (5000 cells/well) were seeded in 96-well plates and allowed to adhere overnight before drug exposure. After 24 h, the cell culture media were replaced with 100 µL of drug-containing media. […]
(§4) The IV value was first determined for each drug alone in HT-29 and PC-3 cells. […] Both Drug A and Drug B concentrations were variable, and the combined effects of equipotent concentrations (fixed ratio) of the IV values for each drug were evaluated.
(§5) For the MTT protocol, after drug treatment, the cell medium was removed and 100 µL/well of MTT solution (0.5 mg/mL in PBS) was added. […] Absorbance was measured at 570 nm in an automated microplate reader (Tecan Infinite M200, Tecan Group Ltd., Männedorf, Switzerland). […]

The subject of assay [2] is PC-3 cells. The experiment in a line: cells. Particulars: Homo sapiens, PC-3, 48 h, read-out: PC-3 IV (intermediate value). As for the experimental part: as §1, §2, §3, §4, §5

pIC50: −log10 of the molar value.

As to `O=c1[nH]cc(F)c(=O)[nH]1` [5-FU, 5-fluorouracil], the pIC50 in assay [1] is 5.59.

In the case of `CC(=O)O[C@H]1C(=O)[C@@]2(C)[C@H]([C@H](OC(=O)c3ccccc3)[C@]3(O)C[C@H](OC(=O)[C@H](O)[C@@H](NC(=O)c4ccccc4)c4ccccc4)C(C)=C1C3(C)C)[C@]1(OC(C)=O)CO[C@@H]1C[C@@H]2O` [PTX, paclitaxel], the pIC50 in assay [2] was 8.00.

The values are drawn from PMC8584931 (International Journal of Molecular Sciences, 2021).
